Results: ChEMBL document CHEMBL1139967, “Design, synthesis, and SAR of macrocyclic tertiary carbinamine BACE-1 inhibitors” (Bioorg Med Chem Lett, 2007)

Tests used:
Cathepsin D = Cathepsin D (Homo sapiens, UniProt P07339)
Description: Inhibition of cathepsin D

Renin = target: T1, Renin (Homo sapiens, UniProt P00797); assay: Inhibition of renin
T1 sequence (P00797 whole entry): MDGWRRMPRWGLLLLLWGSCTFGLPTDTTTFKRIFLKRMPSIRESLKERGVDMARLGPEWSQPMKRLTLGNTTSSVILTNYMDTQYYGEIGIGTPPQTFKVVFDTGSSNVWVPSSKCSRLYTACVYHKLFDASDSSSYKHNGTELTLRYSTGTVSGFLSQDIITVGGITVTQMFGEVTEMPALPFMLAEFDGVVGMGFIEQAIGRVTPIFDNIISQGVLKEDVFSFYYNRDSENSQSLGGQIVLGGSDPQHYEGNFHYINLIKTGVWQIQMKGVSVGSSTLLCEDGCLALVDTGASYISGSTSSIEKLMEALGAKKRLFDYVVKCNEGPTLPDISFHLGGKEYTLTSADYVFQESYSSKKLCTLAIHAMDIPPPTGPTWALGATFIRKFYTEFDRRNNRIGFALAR

Beta-secretase 2 = target: T2, Beta-secretase 2 (Homo sapiens, UniProt Q9Y5Z0); assay: Inhibition of BACE2
T2 sequence (Q9Y5Z0 whole entry): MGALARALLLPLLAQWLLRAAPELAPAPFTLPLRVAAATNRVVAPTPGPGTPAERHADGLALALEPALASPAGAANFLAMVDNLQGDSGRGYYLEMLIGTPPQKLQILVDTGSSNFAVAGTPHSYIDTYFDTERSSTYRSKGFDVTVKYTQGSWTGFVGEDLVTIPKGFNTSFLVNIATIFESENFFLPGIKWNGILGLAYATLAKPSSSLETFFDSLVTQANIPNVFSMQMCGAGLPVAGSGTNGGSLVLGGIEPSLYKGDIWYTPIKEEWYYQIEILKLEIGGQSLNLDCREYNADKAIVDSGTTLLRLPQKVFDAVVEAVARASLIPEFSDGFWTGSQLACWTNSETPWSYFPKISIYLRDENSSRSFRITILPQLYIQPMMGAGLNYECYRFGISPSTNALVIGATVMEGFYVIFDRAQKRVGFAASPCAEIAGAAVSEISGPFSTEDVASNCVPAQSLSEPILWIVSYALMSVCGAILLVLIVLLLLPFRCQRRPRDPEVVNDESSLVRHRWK

in vitro = conditions: human, LLC-PK1
Description: Apparent permeability across L-MDR1 cells

Brain = assay: Drug level in mouse brain at 30 mg/kg, ip after 2 hrs; type: ADME, organism-based; set-up: dose 30 mg/kg, route intraperitoneal; conditions: in vivo

Chain of Cathepsin D (P07339 65-162 limits assumed): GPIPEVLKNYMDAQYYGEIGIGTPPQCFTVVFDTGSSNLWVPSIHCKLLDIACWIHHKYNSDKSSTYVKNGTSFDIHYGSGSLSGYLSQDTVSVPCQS
Chain of Cathepsin D (P07339 169-412 limits assumed): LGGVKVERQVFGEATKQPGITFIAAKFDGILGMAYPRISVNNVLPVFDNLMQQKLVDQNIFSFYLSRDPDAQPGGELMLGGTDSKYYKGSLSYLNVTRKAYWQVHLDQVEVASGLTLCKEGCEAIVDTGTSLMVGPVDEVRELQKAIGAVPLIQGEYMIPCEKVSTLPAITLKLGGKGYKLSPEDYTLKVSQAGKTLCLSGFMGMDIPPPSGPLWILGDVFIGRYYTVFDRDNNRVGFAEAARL

Compound	Papp (in vitro) [×10⁻⁶ cm/s]	also measured
CCCN(c1cc2cc(c1)C(=O)N[C@@H](c1ccccc1)CCc1cccc(c1)C[C@@](C)(N)COC2)S(C)(=O)=O	–	IC50 (Cathepsin D): 275 µM; IC50 (Renin): 144 µM; IC50 (Beta-secretase 2): 1.6 µM
C[C@@]1(N)Cc2cccc(c2)CC[C@H](c2ccccc2)NC(=O)c2cc(Br)cc(c2)COC1=O	9	–
CCCN(c1cc2cc(c1)C(=O)N[C@@H](c1ccccc1)CCc1cccc(c1)C[C@@](C)(N)C(=O)OC2)S(C)(=O)=O	–	IC50 (Cathepsin D): 97 µM; IC50 (Renin): 169 µM; IC50 (Beta-secretase 2): 54 µM
C[C@@]1(N)Cc2cccc(c2)CC[C@H](c2ccccc2)NC(=O)c2cc(cc(-c3ccccc3C#N)c2)COC1=O	9	IC50 (Cathepsin D): 48 µM; Activity (Brain): 16%; IC50 (Renin): 275 µM; IC50 (Beta-secretase 2): 41 µM
C[C@@]1(N)Cc2cccc(c2F)CC[C@H](c2ccc(F)cc2)NC(=O)c2cc(cc(-c3ccccc3C#N)c2)COC1=O	6	–
CN(c1cc2cc(c1)C(=O)N[C@@H](c1ccccc1)CCc1cccc(c1)C[C@@](C)(N)C(=O)OC2)S(C)(=O)=O	9	–

Continued, in another order:

Papp (in vitro) [×10⁻⁶ cm/s]	Compound	also measured
12	CN(c1cc2cc(c1)C(=O)N[C@@H](c1ccccc1)CCc1cccc(c1)C[C@@](C)(N)C(=O)OC2)S(=O)(=O)CC(F)(F)F	–
7	C[C@@]1(N)Cc2cccc(c2)CC[C@H](c2ccc(F)cc2)NC(=O)c2cc(cc(-c3cccc(F)c3C#N)c2)COC1=O	–
15	CN(C)S(=O)(=O)N(C)c1cc2cc(c1)C(=O)N[C@@H](c1ccccc1)CCc1cccc(c1)C[C@@](C)(N)C(=O)OC2	–
6	C[C@@]1(N)Cc2ccc(F)c(c2)CC[C@H](c2ccc(F)cc2)NC(=O)c2cc(cc(-c3cccc(F)c3C#N)c2)COC1=O	–
13	CN(c1cc2cc(c1)C(=O)N[C@@H](c1ccccc1)CCc1cccc(c1)C[C@@](C)(N)C(=O)OC2)S(=O)(=O)C(F)(F)F	–
9	C[C@@]1(N)Cc2ccc(F)c(c2)CC[C@H](c2ccc(F)cc2)NC(=O)c2cc(cc(-c3ccccc3C#N)c2)COC1=O	–
